Experiments:
RAW 264.7 cells = assay: Osteoclast differentiation assay; assay type: cell-based, mouse
[1] = biological target: Hck-TMYF gatekeeper mutant (Homo sapiens, UniProt P08631, T333M/Y522F); assay type: cell-based
Erk2 [2] = biological target: T1, Erk2 (Homo sapiens, UniProt P28482); assay: KINOMEscan displacement assay, Erk2; assay type: binding; conditions: 10 μM inhibitor
[3] = test system: bone marrow-derived macrophages (BMM); assay: Osteoclast differentiation assay; assay type: cell-based, mouse; conditions: M-CSF and RANKL
Hck-YF = Hck-YF (Homo sapiens, UniProt P08631, Y522F); assay: Kinase autophosphorylation in transformed Rat-2 cells by immunoblotting, Hck-YF; assay type: cell-based
Sequence of Hck-YF (P08631 22-526 Y522F limits assumed): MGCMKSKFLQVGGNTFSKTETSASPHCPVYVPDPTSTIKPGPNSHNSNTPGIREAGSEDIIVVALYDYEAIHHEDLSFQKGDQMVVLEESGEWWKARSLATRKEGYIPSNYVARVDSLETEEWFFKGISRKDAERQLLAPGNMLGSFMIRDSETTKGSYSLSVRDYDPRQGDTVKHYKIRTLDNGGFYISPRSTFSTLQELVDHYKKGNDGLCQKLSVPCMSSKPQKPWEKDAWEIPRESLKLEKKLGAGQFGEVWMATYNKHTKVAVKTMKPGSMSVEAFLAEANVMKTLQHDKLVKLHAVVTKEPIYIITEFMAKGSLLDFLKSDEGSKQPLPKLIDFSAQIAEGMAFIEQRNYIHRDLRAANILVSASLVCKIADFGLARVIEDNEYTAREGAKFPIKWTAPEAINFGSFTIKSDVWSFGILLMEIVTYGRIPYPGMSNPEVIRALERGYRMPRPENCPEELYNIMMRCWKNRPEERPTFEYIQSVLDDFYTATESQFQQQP

[4] = test system: Rat-2 cells transformed by Hck-YF; assay: Soft-agar colony formation, Rat-2 fibroblasts transformed by active Hck; assay type: cell-based, rodent
Erk2 [5] = biological target: T1, Erk2; assay: Erk2 in vitro kinase assay; assay type: biochemical
[6] = test system: Rat-2 cells expressing c-Fes-L145P; assay: Soft-agar colony formation, Rat-2 fibroblasts transformed by c-Fes-L145P; assay type: cell-based, rodent
[7] = test system: Rat-2 cells expressing c-Fes/v-Fps chimera; assay: Soft-agar colony formation, Rat-2 fibroblasts transformed by c-Fes/v-Fps chimera; assay type: cell-based, rodent
[8] = test system: control Rat-2 cells expressing GFP alone; assay: Growth of control Rat-2 cells in monolayer culture; assay type: cell-based, rodent
[9] = Rat2, read-out: inhibition of soft-agar colony formation

T1 sequence (P28482 whole entry): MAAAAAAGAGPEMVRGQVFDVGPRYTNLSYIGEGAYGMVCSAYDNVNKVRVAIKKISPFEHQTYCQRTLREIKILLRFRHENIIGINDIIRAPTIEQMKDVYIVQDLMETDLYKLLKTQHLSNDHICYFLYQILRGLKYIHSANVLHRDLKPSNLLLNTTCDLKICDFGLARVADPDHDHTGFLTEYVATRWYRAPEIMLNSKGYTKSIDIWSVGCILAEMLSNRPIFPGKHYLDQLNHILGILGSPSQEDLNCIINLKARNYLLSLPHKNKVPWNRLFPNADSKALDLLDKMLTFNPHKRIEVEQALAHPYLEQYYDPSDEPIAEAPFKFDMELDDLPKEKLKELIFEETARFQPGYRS
Sequence of Hck-TMYF gatekeeper mutant (P08631 22-526 T333M/Y522F limits assumed): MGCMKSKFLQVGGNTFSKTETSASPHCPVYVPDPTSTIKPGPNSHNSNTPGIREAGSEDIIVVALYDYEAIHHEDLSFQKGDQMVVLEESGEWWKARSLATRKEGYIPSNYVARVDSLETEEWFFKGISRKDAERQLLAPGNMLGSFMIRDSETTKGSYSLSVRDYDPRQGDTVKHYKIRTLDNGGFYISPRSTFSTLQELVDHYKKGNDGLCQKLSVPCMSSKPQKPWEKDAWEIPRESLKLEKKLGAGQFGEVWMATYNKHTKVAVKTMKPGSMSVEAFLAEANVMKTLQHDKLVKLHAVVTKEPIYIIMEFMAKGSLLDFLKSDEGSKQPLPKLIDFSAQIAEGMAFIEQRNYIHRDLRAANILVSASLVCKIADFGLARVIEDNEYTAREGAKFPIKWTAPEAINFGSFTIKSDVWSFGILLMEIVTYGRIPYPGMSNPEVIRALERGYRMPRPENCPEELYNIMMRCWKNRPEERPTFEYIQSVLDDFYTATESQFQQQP

Nc1[nH]nc2nnc(-c3c(-c4ccccc4)nn4ccccc34)cc12 [FR180204]
effect on osteoclast differentiation (RAW 264.7 cells; RAW 264.7, 1 μM or 10 μM): did not influence

COc1cc(N2CCC(N3CCN(C)CC3)CC2)ccc1Nc1ncc(Cl)c(Nc2ccccc2S(=O)(=O)C(C)C)n1 [TAE684]
IC50 [1]: 685 nM | displacement score for Erk2 (Erk2 [2]): 0.3 | IC50 values for inhibition of osteoclast differentiation (in words) [3]: submicromolar range | inhibition of osteoclast differentiation compared with BMM (RAW 264.7 cells; RAW 264.7, RANKL and VEGF): Very similar results | IC50 (Hck-YF): > 10000 nM | inhibition of Hck-mediated soft-agar colony formation ([4]; 200 nM): only minimal inhibition | soft-agar colony growth ([4]; Hck transformants, 1 μM): Complete loss | potency towards Erk in an in vitro kinase assay (Erk2 [5]): very low potency | inhibition at 0.1 µM [6, 9]: > 50% | soft-agar colony growth ([6]; c-Fes transformants, 1 μM): Complete loss | concentration giving complete inhibition of soft-agar colony formation ([6]; c-Fes-L145P): 600 nM | inhibition at 0.1 µM [7, 9]: > 50% | concentration giving complete inhibition of soft-agar colony formation ([7]; c-Fes/v-Fps): 400 nM | growth of control Rat-2 cells in monolayer culture ([8]; 100 nM): only slightly reduced | reduction of growth of control Rat-2 cells expressing GFP alone ([8]; 1 μM, after 72 hrs): 50% | growth of control Rat-2 cells expressing GFP alone ([8]; 3 μM): completely abolished

Reference: PMC3334838 (Chemistry & biology, 2012)
